In this test the target is SYK (Homo sapiens, UniProt P43405). Put plainly: SYK inhibition assay: SYK-mediated phosphorylation of FAM-labeled substrate (Caliper microfluidic). It is filed as biochemical. To be noted: read-out: SYK Inhibition (pIC50) (converted).
With `Cn1cc(-c2nc(N[C@@H]3CCOC[C@@H]3N)cc3c2C(=O)NC3)cn1` [Example 27, 6-((3R,4R)-3-Aminotetrahydro-2H-pyran-4-ylamino)-4-(1-methyl-1H-pyrazol-4-yl)-1H-pyrrolo[3,4-c]pyridin-3(2H)-one], the IC50 is 39.8 nM.

For the compound `Cc1ncc(-c2nc(N[C@@H]3CCCC[C@@H]3N)c(F)c3c2C(=O)NC3)s1` [Example 122, 6-((1R,2S)-2-Aminocyclohexylamino)-7-fluoro-4-(2-methylthiazol-5-yl)-1H-pyrrolo[3,4-c]pyridin-3(2H)-one], the IC50 is 631 nM.

Turning to `N[C@H]1CCCC[C@H]1Nc1nc(-c2coc3ccccc23)c2c(c1F)CNC2=O` [Example 50, 6-((1R,2S)-2-Aminocyclohexylamino)-4-(benzofuran-3-yl)-7-fluoro-1H-pyrrolo[3,4-c]pyridin-3(2H)-one], the IC50 was 2.51 nM.

Regarding `COC[C@H](N)CNc1nc(-c2cnn(C)c2)c2c(c1F)CNC2=O` [Example 101, (R)-6-(2-Amino-3-methoxypropylamino)-7-fluoro-4-(1-methyl-1H-pyrazol-4-yl)-1H-pyrrolo[3,4-c]pyridin-3(2H)-one], the IC50 is 63.1 nM.

`Cc1cccc(Nc2nc(N[C@@H]3CCCC[C@@H]3N)c(-c3ccccc3)c3c2C(=O)NC3)c1` [Example 87]: the IC50 is 63.1 nM.

For `CC(C)C[C@@H](Nc1nc(-c2cncs2)c2c(c1F)CNC2=O)C(N)=O` [Example 118, (R)-2-(7-Fluoro-3-oxo-4-(thiazol-5-yl)-2,3-dihydro-1H-pyrrolo[3,4-c]pyridin-6-ylamino)-4-methylpentanamide], the IC50 was 12.6 nM.

Regarding `Cc1cccc(Nc2nc(NCCN)nc3c2C(=O)NC3)c1` [Example 40, 2-(2-Aminoethylamino)-4-(m-tolylamino)-6,7-dihydro-5H-pyrrolo[3,4-d]pyrimidin-5-one], the IC50 was 251 nM.

As to `Cc1cn(-c2nc(N[C@@H]3CCCC[C@@H]3N)c(F)c3c2C(=O)NC3)cn1` [Example 131, 6-((1R,2S)-2-Aminocyclohexylamino)-7-fluoro-4-(4-methyl-1H-imidazol-1-yl)-1H-pyrrolo[3,4-c]pyridin-3(2H)-one], the IC50 was greater than 20000 nM.

`CC(C)C[C@@H](Nc1nc(-c2cnn(C)c2)c2c(c1F)CNC2=O)C(N)=O` [Example 70, (R)-2-(7-Fluoro-4-(1-methyl-1H-pyrazol-4-yl)-3-oxo-2,3-dihydro-1H-pyrrolo[3,4-c]pyridin-6-ylamino)-4-methylpentanamide]: the IC50 is 1.58 nM.

With `N[C@H]1CCCC[C@H]1Nc1nc2c(c(Nc3cccc(Cl)c3)n1)C(=O)NC2` [Example 3, 2-((1R,2S)-2-Aminocyclohexylamino)-4-(3-chlorophenylamino)-6,7-dihydro-5H-pyrrolo[3,4-d]pyrimidin-5-one], the IC50 was 25.1 nM.

With `Cc1cccc(Nc2nc(N3CCC(N)C3)nc3c2C(=O)NC3)c1` (centres unmarked) [Example 45, 2-(3-Aminopyrrolidin-1-yl)-4-(m-tolylamino)-6,7-dihydro-5H-pyrrolo[3,4-d]pyrimidin-5-one], the IC50 is 794 nM.

For `N[C@H]1COCC[C@H]1Nc1nc(-c2cncs2)c2c(c1F)CNC2=O` [Example 128, 6-((3R,4R)-3-Aminotetrahydro-2H-pyran-4-ylamino)-7-fluoro-4-(thiazol-5-yl)-1H-pyrrolo[3,4-c]pyridin-3(2H)-one], the IC50 is 20 nM.

Consider `Cc1c(N[C@@H]2CCCC[C@@H]2N)nc(-c2cnn(C)c2)c2c1CNC2=O` [Example 90, 6-((1R,2S)-2-Aminocyclohexylamino)-7-methyl-4-(1-methyl-1H-pyrazol-4-yl)-1H-pyrrolo[3,4-c]pyridin-3(2H)-one], for which the IC50 is 10 nM.

Turning to `N[C@@H]1[C@H](Nc2nc(-c3cnn(C(F)F)c3)c3c(c2F)CNC3=O)CCCC1(F)F` (relative stereo) [Example 68, 6-(cis-2-Amino-3,3-difluorocyclohexylamino)-4-(1-(difluoromethyl)-1H-pyrazol-4-yl)-7-fluoro-1H-pyrrolo[3,4-c]pyridin-3(2H)-one], the IC50 is 100 nM.

Turning to `Cn1cc(-c2nc(N[C@@H]3CCCC[C@@H]3N)cc3c2C(=O)NC3)cn1` [Example 26, 6-((1R,2S)-2-Aminocyclohexylamino)-4-(1-methyl-1H-pyrazol-4-yl)-1H-pyrrolo[3,4-c]pyridin-3(2H)-one], the IC50 was 31.6 nM.

For `CCn1cc(-c2nc(N[C@@H]3CCCC[C@@H]3N)c(F)c3c2C(=O)NC3)cn1` [Example 60, 6-((1R,2S)-2-Aminocyclohexylamino)-4-(1-ethyl-1H-pyrazol-4-yl)-7-fluoro-1H-pyrrolo[3,4-c]pyridin-3(2H)-one], the IC50 is 15.8 nM.

`CC(C)C[C@@H](Nc1cc2c(c(Nc3cccc(S(C)(=O)=O)c3)n1)C(=O)NC2)C(N)=O` [Example 35, (R)-4-Methyl-2-(4-(3-(methylsulfonyl)phenylamino)-3-oxo-2,3-dihydro-1H-pyrrolo[3,4-c]pyridin-6-ylamino)pentanamide]: the IC50 is 50.1 nM.

For `Cn1ccc(-c2nc(N[C@@H]3CCCC[C@@H]3N)c(F)c3c2C(=O)NC3)n1` [Example 121], the IC50 is 3980 nM.

As to `CC(C)C[C@@H](Nc1nc(-c2ccoc2)c2c(c1F)CNC2=O)C(N)=O` [Example 114, (R)-2-(7-Fluoro-4-(furan-3-yl)-3-oxo-2,3-dihydro-1H-pyrrolo[3,4-c]pyridin-6-ylamino)-4-methylpentanamide], the IC50 was 251 nM.

As for `Cc1cccc(Nc2nc(NCC(N)C(F)(F)F)cc3c2C(=O)NC3)c1` (centres unmarked) [Example 56, 6-(2-Amino-3,3,3-trifluoropropylamino)-4-(m-tolylamino)-1H-pyrrolo[3,4-c]pyridin-3(2H)-one], the IC50 was 2510 nM.

For the compound `Cc1cccc(Nc2nc(NCC(N)=O)nc3c2C(=O)NC3)c1` [Example 42, 2-(5-oxo-4-(m-tolylamino)-6,7-dihydro-5H-pyrrolo[3,4-d]pyrimidin-2-ylamino)acetamide], the IC50 was 158 nM.

In the case of `CC(C)C[C@@H](Nc1nc(-c2cnn3ccccc23)c2c(c1F)CNC2=O)C(N)=O` [Example 74, (R)-2-(7-Fluoro-3-oxo-4-(pyrazolo[1,5-a]pyridin-3-yl)-2,3-dihydro-1H-pyrrolo[3,4-c]pyridin-6-ylamino)-4-methylpentanamide], the IC50 is 5.01 nM.

As for `C=CC(=O)c1c(N[C@@H]2CCCC[C@@H]2N)nc(Nc2cccc(C)c2)c2c1CNC2=O` [Example 80, 7-Acryloyl-6-((1R,2S)-2-aminocyclohexylamino)-4-(m-tolylamino)-1H-pyrrolo[3,4-c]pyridin-3(2H)-one], the IC50 was 3160 nM.

Take `CCOC[C@H](N)CNc1cc2c(c(Nc3cccc(C)c3)n1)C(=O)NC2` [Example 54, (R)-6-(2-Amino-3-ethoxypropylamino)-4-(m-tolylamino)-1H-pyrrolo[3,4-c]pyridin-3(2H)-one]: the IC50 was 251 nM.

On to `Cn1cc(-c2nc(N[C@@H]3CCOC[C@@H]3N)c(F)c3c2C(=O)NC3)cn1` [Example 65, 6-((3R,4R)-3-Aminotetrahydro-2H-pyran-4-ylamino)-7-fluoro-4-(1-methyl-1H-pyrazol-4-yl)-1H-pyrrolo[3,4-c]pyridin-3(2H)-one], for which the IC50 was 10 nM.

For `N[C@H]1CCCC[C@H]1Nc1nc(-c2cnn3ccccc23)c2c(c1F)CNC2=O` [Example 31, 6-((1R,2S)-2-Aminocyclohexylamino)-7-fluoro-4-(pyrazolo[1,5-a]pyridin-3-yl)-1H-pyrrolo[3,4-c]pyridin-3(2H)-one], the IC50 is 2.51 nM.

With `N[C@H]1CCCC[C@H]1Nc1nc2c(c(-c3csc4ccccc34)n1)C(=O)NC2` [Example 17, 2-((1R,2S)-2-Aminocyclohexylamino)-4-(benzo[b]thiophen-3-yl)-6,7-dihydro-5H-pyrrolo[3,4-c]pyrimidin-5-one], the IC50 was 39.8 nM.

Regarding `CC(C)C[C@@H](Nc1nc(-c2ccc(C#N)s2)c2c(c1F)CNC2=O)C(N)=O` [Example 116, (R)-2-(4-(5-Cyanothiophen-2-yl)-7-fluoro-3-oxo-2,3-dihydro-1H-pyrrolo[3,4-c]pyridin-6-ylamino)-4-methylpentanamide], the IC50 is 7.94 nM.

In the case of `Cc1cccc(Nc2nc(N[C@@H]3CCCC(F)(F)[C@@H]3N)cc3c2C(=O)NC3)c1` (relative stereo) [Example 83, 6-(cis-2-Amino-3,3-difluorocyclohexylamino)-4-(m-tolylamino)-1H-pyrrolo[3,4-c]pyridin-3(2H)-one], the IC50 was 251 nM.

Regarding `Cc1cccc(Nc2nc(NC3CCCCC3)nc3c2C(=O)NC3)c1` [Example 10, 2-(Cyclohexylamino)-4-(m-tolylamino)-6,7-dihydro-5H-pyrrolo[3,4-d]pyrimidin-5-one], the IC50 was greater than 20000 nM.

For `CC1NC(=O)c2c(-c3cnn(C)c3)nc(N[C@@H]3CCCC[C@@H]3N)c(F)c21` (stereo partly drawn) [Example 124, 6-((1R,2S)-2-Aminocyclohexylamino)-7-fluoro-1-methyl-4-(1-methyl-1H-pyrazol-4-yl)-1H-pyrrolo[3,4-c]pyridin-3(2H)-one], the IC50 was 25.1 nM.

In the case of `N[C@H]1CCCC[C@H]1Nc1nc2c(c(Nc3ccc4cn[nH]c4c3)n1)C(=O)NC2` [Example 4, 4-(1H-Indazol-6-ylamino)-2-((1R,2S)-2-aminocyclohexylamino)-6,7-dihydro-5H-pyrrolo[3,4-c]pyrimidin-5-one], the IC50 is 15.8 nM.

For the compound `Cc1csc(-c2nc(N[C@H](CC(C)C)C(N)=O)c(F)c3c2C(=O)NC3)c1` [Example 109, (R)-2-(7-Fluoro-4-(4-methylthiophen-2-yl)-3-oxo-2,3-dihydro-1H-pyrrolo[3,4-c]pyridin-6-ylamino)-4-methylpentanamide], the IC50 was 3.16 nM.

For `CCn1cc(-c2nc(N[C@@H]3CCCC[C@@H]3N)nc3c2C(=O)NC3)cn1` [Example 18, 2-((1R,2S)-2-Aminocyclohexylamino)-4-(1-ethyl-1H-pyrazol-4-yl)-6,7-dihydro-5H-pyrrolo[3,4-d]pyrimidin-5-one], the IC50 was 79.4 nM.

On to `CC(C)C[C@@H](Nc1nc(-c2cc(C#N)cs2)c2c(c1F)CNC2=O)C(N)=O` [Example 117, (R)-2-(4-(4-Cyanothiophen-2-yl)-7-fluoro-3-oxo-2,3-dihydro-1H-pyrrolo[3,4-c]pyridin-6-ylamino)-4-methylpentanamide], for which the IC50 was 12.6 nM.

Values taken from patent US9181255B2, “Fused heteroaromatic pyrrolidinones as SYK inhibitors” (Takeda Pharmaceutical Company Limited, priority 2009, dated 2015).
